Laboratory results as given in patent publication US20230233483A1, “COMPOUND AND METHOD FOR THE TREATMENT OF CORONAVIRUSES” (Apteeus, priority 2020, published 2023).
“Also recorded” adds a separate entry of the source.

Assays:
hSARS-CoV2 [1] = assay: Viral genomic replication (RT-qPCR) in Vero81 and TMPRSS2-transduced Vero81 cells; format: cell-based, SARS-CoV-2
Description: Cell culture: Vero81 cells and Vero-81 cells transduced with TMPRSS2 were cultured in Dulbecco’s modified Eagle medium (DMEM) supplemented with 10% fetal bovine serum (FBS) and GlutaMAX™ in a humidified atmosphere of 5% CO2 at 37° C.
Tested compound: solutions of clofoctol were prepared in DMSO at concentrations required to achieve the desired concentrations in the experiment. Solutions were dispensed onto the living cells. The maximum concentration of DMSO was 0.15%.
Cell infection: cells were infected after addition of clofoctol at various concentrations or control solvents. The multiple of infection was 0.25. […]
RNA dosing: after 6 hours of incubation, total cellular RNA was extracted by using the Nucleospin RNA kit (Macherey-Nagel) as recommended by the manufacturer and SARS-CoV-2 genome were measured by quantitative RT-PCR. […] Primers and probe (WHO protocol) targeting the open reading frame for the E gene were used. […]
The effect of clofoctol on Vero81 and TMPRSS2-transduced Vero81 cells infected with hSARS-CoV2 was assessed by adding a range of concentrations of clofoctol, following 1:2,5 dilutions, prior to infection with hSARS-CoV2 at MOI 0.25 for 6 hours. […]
Results were obtained by dosing viral RNA and the viral load was expressed as the ratio of the viral RNA on the total RNA (RNAt) of the sample. […]

SARS-CoV-2 [2] = format: cell-based; conditions: Vero-81 and Vero-81-TMPRSS2 cells, MOI 0.25, treatment after 1 h infection, 16 h
HCoV-229E-Rluc = format: cell-based; conditions: Huh-7 cells, 7h post-infection
SARS-CoV-2 [3] = format: in vivo, K18-human ACE2 expressing C57BL/6 mice; conditions: i.p. 62.5 mg/kg 1 h and 8 h after inoculation and twice daily at day 1; day 2 post-infection
[4] = read-out: Cmax in human lung tissue; patients undergoing pulmonary resection or pneumonectomy, clofoctol administered before or during surgery; cited from earlier work
hSARS-CoV-2 = assay: Infected human bronchial epithelia (MucilAir), secreted virus and viral RNA; format: cell-based, SARS-CoV-2; conditions: apical administration, MOI 0.2, 72 hours
Description: Human bronchial epithelia (MucilAir™, available from the company Epithelix) were treated through apical administration of clofoctol. The epithelia were first washed with Mucilair® culture medium containing different concentrations of clofoctol prior to infection by hSARS-CoV-2 at MOI 0.2 for 1 hour, still in the presence of clofoctol. Then, the inoculum was removed and epithelia were washed with PBS before addition at the apical pole of 25 µl of Mucilair® culture medium containing different concentrations of clofoctol. After 72 hours of incubation at 37° C., 200 µl of MucilAir™ culture medium was added at the apical pole of the epithelia and harvested, after incubating for 5 minutes. These supernatants were used to quantify the amount of secreted virus as assessed by TCID50. The results are shown in FIG. 15 in which the dotted line represents the limit of detection […]. In addition, total RNAs were extracted by using the Nucleospin RNA kit (Macherey-Nagel) prior to genome quantification by RT-qPCR. The data in both FIGS. 15 and 16 represent the average and standard-deviation of technical triplicates (n=3).

hSARS-CoV2 [5] = assay: Cytopathic effect and cell growth in TMPRSS2-transduced Vero81 cells infected with hSARS-CoV2; format: cell-based, SARS-CoV-2; conditions: MOI 0.01, 72 hours
Description: Vero-81 cells were transduced with a lentivirus expressing TMPRSS2. TMPRSS2 was cloned into pTRIP vector, lentivectors were produced by transfection of HEK293T cells with pTRIP-TMPRSS2, phCMV-VSVG and HIV gag-pol with Turbofect™ (ThermoFischer) according to the manufacturer’s instruction. Supernatants containing lentiviral vectors were used to transduce cells. Then cells were used in experiments 72 h after the transduction.
Tested compound: solutions of the clofoctol were prepared in DMSO at concentrations required to achieve the desired concentrations in the experiment. Solutions were dispensed onto the living cells. The maximum concentration of DMSO was 0.15%. […]
(§1) The effect of clofoctol on TMPRSS2-transduced Vero81 cells infected with hSARS-CoV2 was assessed by adding a range of concentrations of clofoctol, following 1:3 dilutions, prior to infection with hSARS-CoV2 at MOI 0.01 for 72 hours. […]
(§2) The results were obtained by analyzing the percentage of PI-positive nuclei expressed as the percentage of CPE relative to a scale defined by positive (0% infected cells) and negative (100% infected cells) controls. […]
The results were obtained by analyzing the number of living cells expressed as the percentage of cell growth improvement relative to a scale defined by normal cell growth (not infected controls) and no cell growth (infected controls). […]

hSARS-CoV2 [6] = assay: Cytopathic effect and cell growth in Vero81 cells infected with hSARS-CoV2; format: cell-based, SARS-CoV-2; conditions: MOI 0.01, 72 hours
Description: Vero cells [ATCC® CCL-81™, ECACC, Sigma-Aldrich, France, hereafter “Vero81” cells] were cultured in Dulbecco’s modified Eagle medium (DMEM) supplemented with 10% fetal bovine serum (FBS) and GlutaMAX™ in a humidified atmosphere of 5% CO2 at 37° C.
Tested compound: solutions of the clofoctol were prepared in DMSO at concentrations required to achieve the desired concentrations in the experiment. Solutions were dispensed onto the living cells. The maximum concentration of DMSO was 0.15%.
Cell infection: cells were infected after addition of clofoctol at various concentrations or control solvents. The multiple of infection was 0.01. […]
as §1, with “on” for “on TMPRSS2-transduced”, “0.01 (Multiple Of Infection (MOI) 0.01 means that the amount of virus used is 0.01 per 1 cell)” for “0.01”
as §2
The effect of clofoctol on Vero81 cells infected with hSARS-CoV2 was assessed by adding a range of concentrations of clofoctol, following 1:3 dilutions, prior to infection with hSARS-CoV2 at MOI 0.01 for 72 hours. […]

SARS-CoV-2 [7] = format: cell-based; conditions: Calu-3 cells, MOI 0.25, 24 h
[8] = Pharmacokinetics in C57BL/6J mice, plasma and lung concentration; format: in vivo; conditions: i.p. 62.5 mg/kg single dose or twice daily for two days
Description: Clofoctol diluted in 1.75% final Kolliphor® RH40 (07076, Sigma) and 1.4% final ethanol in a sodium chloride solution was used for intraperitoneal injection. Female 8-10 week-old C57BL/6J mice were treated i.p. with a single dose of clofoctol (62.5 mg/kg) and were sacrificed at different time points thereafter (FIG. 9, left panel). In a separate experiment, the mice were treated i.p. twice daily with a dose of clofoctol (62.5 mg/kg) for two days, and the mice were sacrificed 1 h after the last injection (FIG. 9, right panel). The concentration of clofoctol in the plasma and lung of treated mice was measured as follows: plasma samples and lung tissues were collected and treated with absolute ethanol, in a ratio of 1 to 10 and 1 to 50, respectively. Lung tissues were homogenized with a mechanical lysis system (Tissue Lyzer II). Supernatants were obtained by centrifugation before injection in LC-MS/MS. Samples were analysed using UPLC system Acquity I Class (Waters), combined with a triple quadrupole mass spectrometer Xevo TQD (Waters). The column, placed at 40° C., was an Acquity BEH C8 50*2.1 mm, 1.7 µm column (Waters) and the following mobile phases were used: 5 mM ammonium formate pH 3.75 in water, as solvent (A) and 5 mM ammonium formate pH 3.75 in acetonitrile as solvent (B). […]

Structure (SMILES): CC(C)(C)CC(C)(C)c1ccc(O)c(Cc2ccc(Cl)cc2Cl)c1 [clofoctol, 2-(2,4-Dichlorobenzyl)-4-(1,1,3,3-tetramethylbutyl)phenol]
- IC95 of viral load (ratio of viral RNA on total RNA) (hSARS-CoV2 [1]; Vero81 and TMPRSS2-transduced Vero81 cells, MOI 0.25, 6 hours): 11 µM
- Genomic replication of SARS-CoV-2 (viral RNA by RT-qPCR, normalized to total RNA) (hSARS-CoV2 [1]; Vero-81 and Vero-81-TMPRSS2 cells, MOI 0.25, 6 h, increasing concentrations): inhibits the replication of hSARS-CoV2 in infected cells; also recorded: inhibits the genomic replication of SARS-CoV-2
- Secreted infectious virus (TCID50) in supernatants (SARS-CoV-2 [2]): inhibits the secretion of hSARS-CoV-2 by infected cells; also recorded: SARS-CoV-2 load decreases as the concentration of clofoctol increases
- Activity against HCoV-229E (luciferase activity, percentage of control) (HCoV-229E-Rluc): active against HCoV-229E
- SARS-CoV-2 infection in mice (lung viral load by titration and RT-qPCR) (SARS-CoV-2 [3]): significantly reduces SARS-CoV-2 infection in mice
- Cmax [4]: ~250 µM
- Factor of reduction of virus titer in the mucus of human bronchial epithelium (TCID50) (hSARS-CoV-2; 30 µM): more than 100
- Viral RNA quantitation (RT-qPCR) in human bronchial epithelia (hSARS-CoV-2; not normalized): decrease of viral RNA quantitation
- IC95 of the CPE (percentage of PI-positive nuclei) (hSARS-CoV2 [5]): 8.7 µM
- EC95 (cell growth improvement) (hSARS-CoV2 [5]; estimated): ~25 µM
- IC95, concentration reducing 95% of the CPE (percentage of PI-positive nuclei) (hSARS-CoV2 [6]): 9.2 µM
- EC95, concentration at which 95% of maximum response is observed (cell growth improvement) (hSARS-CoV2 [6]; estimated): ~21 µM
- SARS-CoV-2 replication (viral RNA by RT-qPCR) (SARS-CoV-2 [7]): inhibits SARS-CoV-2 replication in Calu-3 cells
- Distribution in lungs (concentration in plasma and lung) [8]: distributed in lungs at very significant levels
